Experiments:
Assay in all cases: Dundee kinase panel
Type in all cases: biochemical
Details in all cases: for remaining activity at 1 µM: read-out: residual activity
NUAK1 = molecular target: T1, NUAK1 (Homo sapiens, UniProt O60285)
T1 construct: lines 1-140) and Reaction Biology
T1 sequence (O60285 1-661): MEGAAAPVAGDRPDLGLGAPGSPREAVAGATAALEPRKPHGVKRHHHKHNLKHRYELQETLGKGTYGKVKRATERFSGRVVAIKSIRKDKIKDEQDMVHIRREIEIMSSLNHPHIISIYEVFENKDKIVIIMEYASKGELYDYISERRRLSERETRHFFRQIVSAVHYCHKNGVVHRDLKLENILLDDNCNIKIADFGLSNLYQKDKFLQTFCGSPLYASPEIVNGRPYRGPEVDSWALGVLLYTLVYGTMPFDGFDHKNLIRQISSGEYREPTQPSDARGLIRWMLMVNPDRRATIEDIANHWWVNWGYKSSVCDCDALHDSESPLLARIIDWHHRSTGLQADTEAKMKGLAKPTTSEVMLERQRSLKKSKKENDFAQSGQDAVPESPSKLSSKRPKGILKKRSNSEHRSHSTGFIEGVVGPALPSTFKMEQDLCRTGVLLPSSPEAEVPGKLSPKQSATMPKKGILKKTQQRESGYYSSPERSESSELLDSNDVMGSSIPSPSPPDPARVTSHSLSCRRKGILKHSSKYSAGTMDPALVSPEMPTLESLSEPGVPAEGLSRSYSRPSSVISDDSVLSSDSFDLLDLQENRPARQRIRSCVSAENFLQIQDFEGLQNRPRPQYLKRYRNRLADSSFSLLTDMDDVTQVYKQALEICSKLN
Procedure: (§1) Compounds were screened at 1 μM. For key hits, pIC50 values were then determined by HTRF as above. […] Stability in mouse and human liver microsomes was determined by Cyprotex.

MKK2 = molecular target: T2, MKK2 (Homo sapiens, UniProt P36507)
T2 construct: lines 1-140) and Reaction Biology
Procedure: as §1

Aurora A = molecular target: T3, Aurora A (Homo sapiens, UniProt O14965)
T3 construct: lines 1-140) and Reaction Biology
T3 sequence (O14965 1-403): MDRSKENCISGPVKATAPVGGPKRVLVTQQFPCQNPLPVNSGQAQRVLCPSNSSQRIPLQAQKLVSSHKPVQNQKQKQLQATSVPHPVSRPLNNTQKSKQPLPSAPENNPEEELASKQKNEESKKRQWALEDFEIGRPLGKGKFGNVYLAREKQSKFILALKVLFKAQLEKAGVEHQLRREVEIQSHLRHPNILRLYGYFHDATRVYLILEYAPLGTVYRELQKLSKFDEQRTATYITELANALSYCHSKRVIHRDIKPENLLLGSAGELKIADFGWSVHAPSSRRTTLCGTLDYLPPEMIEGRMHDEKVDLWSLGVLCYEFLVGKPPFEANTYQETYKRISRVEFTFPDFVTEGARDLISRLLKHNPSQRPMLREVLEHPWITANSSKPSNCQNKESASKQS
Procedure: as §1

MNK1 = molecular target: T4, MNK1 (Homo sapiens, UniProt Q9BUB5)
T4 construct: lines 1-140) and Reaction Biology
Procedure: as §1

GCK = molecular target: T5, GCK (Homo sapiens, UniProt Q12851)
T5 construct: lines 1-140) and Reaction Biology
T5 sequence (Q12851 1-820): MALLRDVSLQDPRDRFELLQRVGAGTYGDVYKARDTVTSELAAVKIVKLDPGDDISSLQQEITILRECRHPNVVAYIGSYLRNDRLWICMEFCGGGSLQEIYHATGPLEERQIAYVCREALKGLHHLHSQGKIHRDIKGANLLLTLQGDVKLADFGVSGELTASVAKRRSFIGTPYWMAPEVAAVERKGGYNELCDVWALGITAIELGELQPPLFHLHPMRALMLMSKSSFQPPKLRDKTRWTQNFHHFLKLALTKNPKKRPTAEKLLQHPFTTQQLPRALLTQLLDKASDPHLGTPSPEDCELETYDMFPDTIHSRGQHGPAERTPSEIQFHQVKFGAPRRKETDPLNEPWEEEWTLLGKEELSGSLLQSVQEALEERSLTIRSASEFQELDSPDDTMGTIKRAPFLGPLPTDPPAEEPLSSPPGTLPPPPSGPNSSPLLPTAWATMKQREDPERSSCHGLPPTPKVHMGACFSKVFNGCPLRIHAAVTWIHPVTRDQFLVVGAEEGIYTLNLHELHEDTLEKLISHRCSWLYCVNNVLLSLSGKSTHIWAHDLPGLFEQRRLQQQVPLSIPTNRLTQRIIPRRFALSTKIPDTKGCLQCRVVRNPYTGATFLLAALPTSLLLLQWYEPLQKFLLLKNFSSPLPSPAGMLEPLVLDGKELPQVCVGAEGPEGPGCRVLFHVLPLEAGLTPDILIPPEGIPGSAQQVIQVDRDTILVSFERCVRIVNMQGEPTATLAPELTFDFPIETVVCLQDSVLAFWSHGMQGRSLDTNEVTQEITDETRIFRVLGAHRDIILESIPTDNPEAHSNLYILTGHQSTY
Procedure: as §1

CAMK1 = molecular target: T6, CAMK1 (Homo sapiens, UniProt Q14012)
T6 construct: lines 1-140) and Reaction Biology
Procedure: as §1

T6 sequence (Q14012 whole entry): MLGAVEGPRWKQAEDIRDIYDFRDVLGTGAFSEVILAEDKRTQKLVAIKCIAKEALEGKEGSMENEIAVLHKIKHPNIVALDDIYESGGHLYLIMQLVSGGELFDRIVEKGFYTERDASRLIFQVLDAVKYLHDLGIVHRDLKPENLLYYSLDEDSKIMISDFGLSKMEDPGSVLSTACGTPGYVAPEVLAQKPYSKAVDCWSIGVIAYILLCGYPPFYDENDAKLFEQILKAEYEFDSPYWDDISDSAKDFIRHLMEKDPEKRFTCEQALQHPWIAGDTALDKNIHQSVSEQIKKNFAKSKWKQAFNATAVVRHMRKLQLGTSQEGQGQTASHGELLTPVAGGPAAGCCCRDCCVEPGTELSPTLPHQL
T2 sequence (P36507 whole entry): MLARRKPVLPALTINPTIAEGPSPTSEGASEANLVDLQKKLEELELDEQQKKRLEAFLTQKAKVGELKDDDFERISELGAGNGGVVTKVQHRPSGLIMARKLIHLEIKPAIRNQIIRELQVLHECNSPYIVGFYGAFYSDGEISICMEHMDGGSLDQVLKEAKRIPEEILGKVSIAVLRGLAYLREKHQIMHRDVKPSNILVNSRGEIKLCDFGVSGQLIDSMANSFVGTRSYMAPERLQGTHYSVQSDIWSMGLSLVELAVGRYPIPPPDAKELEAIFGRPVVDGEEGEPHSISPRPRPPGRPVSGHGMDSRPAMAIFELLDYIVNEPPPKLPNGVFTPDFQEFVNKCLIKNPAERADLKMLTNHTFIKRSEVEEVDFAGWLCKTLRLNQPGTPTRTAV
T4 sequence (Q9BUB5 whole entry): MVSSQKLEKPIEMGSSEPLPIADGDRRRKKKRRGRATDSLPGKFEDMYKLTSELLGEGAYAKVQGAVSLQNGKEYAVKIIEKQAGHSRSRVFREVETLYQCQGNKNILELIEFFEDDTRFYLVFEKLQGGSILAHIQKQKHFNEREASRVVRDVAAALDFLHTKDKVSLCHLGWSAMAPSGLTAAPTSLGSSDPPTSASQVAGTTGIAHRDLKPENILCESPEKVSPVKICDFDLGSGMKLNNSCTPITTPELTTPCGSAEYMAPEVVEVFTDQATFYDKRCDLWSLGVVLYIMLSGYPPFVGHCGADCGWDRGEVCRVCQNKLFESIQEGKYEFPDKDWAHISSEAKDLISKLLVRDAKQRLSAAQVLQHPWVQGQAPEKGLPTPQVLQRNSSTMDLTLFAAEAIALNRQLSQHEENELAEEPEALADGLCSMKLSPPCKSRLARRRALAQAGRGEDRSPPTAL

SMILES | remaining activity at 1 µM (NUAK1) [%] | remaining activity at 1 µM (MKK2) [%] | remaining activity at 1 µM (Aurora A) [%] | remaining activity at 1 µM (MNK1) [%] | remaining activity at 1 µM (GCK) [%] | remaining activity at 1 µM (CAMK1) [%] | residual activity (NUAK1; 1 μM) [%] | residual activity (MKK2; 1 μM) [%] | residual activity (Aurora A; 1 μM) [%] | residual activity (MNK1; 1 μM) [%] | residual activity (GCK; 1 μM) [%] | residual activity (CAMK1; 1 μM) [%]
COCCOc1ccc(-c2cn(-c3ccccc3)c3nc[nH]c(=O)c23)cc1 [DMX-5804, 5-[4-(2-methoxy-ethoxy)-phenyl]-7-phenyl-3,7-dihydro-pyrrolo[2,3-d]pyrimidin-4-one] | 14 | 98 | 72 | 90 | 36 | 114 |  |  |  |  |  | 
Oc1ncnc2c1c(-c1ccccc1)cn2-c1ccccc1 [F1386-0303, 5,7-diphenyl-7H-pyrrolo[2,3-d]pyrimidin-4-ol] | 48 | 102 | 111 | 102 | 39 | 97 |  |  |  |  |  | 
Nc1ncc(C(=O)NC2CN(C(=O)C3CC3)C2)c2ccc(-c3cccc(F)c3)nc12 [GNE-495] |  |  |  |  |  |  | 49 | 75 | 73 | 53 | 18 | 93
O=C1Nc2ccc(I)cc2/C1=C/c1cc(Br)c(O)c(Br)c1 [GW5074] | 63 | 79 | 79 | 82 | 60 | 70 |  |  |  |  |  | 
O=C1Cc2c([nH]c3ccc(Br)cc23)-c2ccccc2N1 [Kenpaullone] | 79 | 91 | 96 | 91 | 95 | 103 |  |  |  |  |  | 
